# Laboratory results from PMC5847048 (Psychopharmacology, 2017).
# Experiments:
# aged rats = test system: aged rats; design: method as in Calabrese et al. [2017]; conditions: dorsal hippocampus and prefrontal cortex of aged rats; ref Calabrese et al. [2017]; cited from earlier work
# [1] = test system: middle-aged mice (14–15 months old); experiment: Contextual serial discrimination (CSD) task; format: in vivo, mouse; conditions: for Strength of contextual memory (SCM) score, first discrimination D1: Experiment 1 study A, middle-aged mice, vehicle − 21.66%; for SCM score (LSMeans ± SE LSMeans): Experiment 2, 9 days, D1
# Method: Treatments were administered per os daily for nine consecutive days for studies involving the CSD and SA tasks. The 8th and the 9th oral administrations were given 60 min before acquisition and test phases in the CSD task, or before the training and the test sessions in the SA task.
# The studies were carried out on mice according to the procedure described in full by Celerier et al. ([2004]) and Tronche et al. ([2010]) (Fig.1). Briefly, the mouse learns two consecutive spatial discriminations (D1 and D2) in a four hole-board apparatus (45 × 45 × 30 cm) enclosed with gray Plexiglas walls. The floor of the hole-board was interchangeable (white and rough versus black and smooth). On the floor, four holes opening on a food cup (3-cm diameter × 2.5-cm depth) were located 6 cm away from the sidewalls. Photocells located into the holes allowed an automatic recording of the number of head-dips in each hole.
# Fig. 1 a Contextual serial discrimination: at the acquisition phase, mice performed two consecutive spatial discrimination sessions varying by the color and texture of the floor, i.e., D1, discrimination 1, and D2, discrimination 2. For each discrimination session, only one out of the four holes of the apparatus was baited (hashed circles). […] One hour prior to acquisition and test phases, mice received a per os administration of the compounds or vehicle solution in a chamber placed in a room (room C) different from the one in which the behavioral experiments were conducted (room A). Subsequently, mice were submitted to the test phase in which they were repositioned on the floor of the first discrimination without any food pellet in the apparatus. b Two types of responses were calculated: (i) correct responses corresponding to head-dips into the hole baited at the acquisition of the first discrimination (D1), on the same floor context; (ii) interference responses corresponding to head-dips into the hole baited at the other (second) discrimination (D2). Both parameters allow calculation of the SCM score
# Mice were partially food-deprived for 1 week prior to experimentation and were maintained on a 12 ± 2% loss of their body weight throughout behavioral testing to increase motivation for food reward. During the food deprivation phase, mice were handled daily to familiarize them with the experimenter.
# During the acquisition session, mice were first placed at the center of the board in a plastic tube for 15 s and then learned two successive spatial discriminations (D1 and D2) for 6 min each and were each separated by a 2-min interval. Between two sessions, each mouse was placed in its home cage in an animal housing room. For D1, ten 20-mg pellets were available only in one of the four holes in the board. For D2, ten 20-mg pellets were located in the opposite symmetrical hole. The environmental spatial cues remained at the same place for D1 and D2. Within each group, the floors used for the first and second discrimination (D1 and D2) were counterbalanced at the acquisition phase from one mouse to the other. A minimal amount of eight pellets should be eaten per mouse at either D1 or D2 during the acquisition phase.
# During memory testing, D1 and D2 discriminations were performed in independent groups of mice, being replaced either on the floor of D1 or of D2. The food-deprived mice were replaced either on the floor of D1 or on the floor of D2. In each case, mice were allowed to explore the apparatus freely and performance was assessed by measuring the exploration for each hole for 6 min without any pellets in the apparatus. During the procedure, photocells allowed measurement of the number of head dips in each hole. Different parameters were further calculated: % of correct responses (head-dips into the hole previously baited on the same floor context), % of interfering responses (head-dips into the hole previously baited on the other floor context), and % of errors (head-dips into the two holes never previously baited).
smiles,measurement,setting,value
O=C1c2cc3nnn(CCc4cccc(F)c4)c(=O)c3cc2OCN1C1CC1 [S 47445],Neurotrophic effects,aged rats,displayed neurotrophic effects
same,"Total number of explorations and % exploration of the baited hole, acquisition phase","[1]; Experiment 1 (study A and B), compounds alone, p> 0.10 in all analyses",No significant between-groups difference
same,Memory performance in the second discrimination (D2),"[1]; Experiment 1, S 47445 at all doses, donepezil at the active doses, versus middle-aged vehicle, data not shown",did not alter memory performance
same,"Total number of head-dips, test phase","[1]; Experiment 1, versus vehicles (p > 0.10 in all comparisons), data not shown",no significant effect
same,"Strength of contextual memory (SCM) score, first discrimination D1",[1]; S 47445 0.1 mg/kg p.o. daily 9 days,6.56%
same,"Strength of contextual memory (SCM) score, first discrimination D1",[1]; S 47445 0.3 mg/kg p.o. daily 9 days,10.57%
same,SCM score (LSMeans ± SE LSMeans),[1]; S 47445 0.1 mg/kg p.o. alone,5.1515 ± 7.7919%
same,SCM score (LSMeans ± SE LSMeans),[1]; S 47445 0.3 mg/kg p.o. alone,11.7033 ± 7.7919%
same,"Post hoc analysis of S 47445 effect on SCM score for all donepezil levels (Dunnett, versus vehicle group)","[1]; S 47445 0.03 mg/kg, all levels of donepezil pooled",+ (+p ≤ 0.050)
same,"SCM score of the second discrimination (D2), dose effect at pooled levels of the other drug","[1]; Supplemental data 2, S 47445 0.03–0.3 mg/kg p.o. (p=0.951), Donepezil 0.03 and 0.1 mg/kg (p=0.074)",no significant effect
